Results taken from US10385005B2, “Compositions and methods for glucose transport inhibition” (OHIO UNIVERSITY, priority 2010, dated 2019).
“And” between values parts separate entries of the source, which are not always exact repeats. Equal values may be shown once. Marks after values point to notes of the source that are not given here.

Key:
[1] = tested on: H1299 cells; assay: Standard glucose uptake assay, H1299; format: cell-based, human; conditions: for Glucose transport inhibition (%) / level of glucose transport inhibition (in words): H1299; for % inhibition of basal glucose transport: Table 3, 30 μM in H1299 cells
Method: (§1) Briefly, H1299 cancer cells were treated with or without the compounds (30 μM) in triplicates for 10 min before the glucose uptake assay. Cellular glucose uptake was measured by incubating cells in the glucose-free KRP buffer with […] [^3H]2-deoxyglucose (specific activity, 40 Ci/mmol) for 30 min in the absence or presence of compounds. After the cells were washed with ice-cold PBS and lysed by 0.2 N NaOH, the cell lysates were transferred to scintillation counting vials and the radioactivity in the cell lysates was quantified by liquid scintillation counting. Cell growth measurements were performed using an MTT assay in hexads in a 96-well tissue culture plate with 5,000 cells plated in each well. The cells were incubated in presence or absence of the compounds (30 μM) for 48 h. After incubation, cell viabilities were assayed using a 96-well SPECTRAMAX™ absorbance/fluorescence plate reader (Molecular Devices).
Cancer cells are treated with or without the compounds for 10 min before the glucose uptake assay. Cellular glucose uptake will be measured by incubating cells in glucose-free RPMI 1640 with […] [^3H]2-deoxyglucose (specific activity, 40 Ci/mmol) for 30 min in the absence and presence of compounds. After the cells are washed with ice-cold PBS and lysed, the cell lysates will be transferred to scintillation counting vials and the radioactivity in the cell lysates is quantified by liquid scintillation counting.

[2] = tested on: H1299 lung cancer cells; assay: MTT cell growth / viability assay, H1299; format: cell-based, human
Method: as §1
MTT assays are performed by the following well-established method. In a 96 well tissue culture plate 10,000 cells are plated in each well. The cells are incubated in presence or absence of the compounds for 18 h. 3-(4,5-Dimethylthiazol-2-yl)-2,5-diphenyltetrazolium bromide (MTT) is dissolved in PBS (10 mg/ml) and filter sterilized. Three hours before the end of the incubation 20 μL of MTT solution is added to each well containing cells in a 96-well plate. The plate is incubated in an incubator at 37° C. for 3 h. Media is aspirated gently and 200 μL of DMSO is added to each well to dissolve formazan crystals. The absorbance is measured at 550 nm for cell viability.

[3] = HPLC analysis of compound stability in human serum; format: in vitro ADME; conditions: for Compound concentration (%) after incubation with serum: human serum, 37 C
Method: A total of 2.5 ml of compound solution was added to 22.5 ml of human serum and the mixture was incubated at 37 C for various times. The final concentration of the compound in serum was 6.8 mM. After incubation, […] of acetonitrile was added to the mixture, centrifuged to remove proteins before HPLC analysis. The relative concentration of samples at 0 h (in serum but without incubation) was arbitrarily assigned a value of 100% and all other samples were compared to the 0 h samples.

[4] = Table 2, 30 μM, untreated cells 0% inhibition

SMILES | Glucose transport inhibition (%) [1, 4] [%] | Cell growth inhibition (%) ([2]; Table 2, 30 μM, 48 h) | Glucose transport inhibition (%) ([1]; Table 12) | further results
O=C(Oc1ccc(Cl)cc1OC(=O)c1cc(O)c(O)c(O)c1)c1cc(O)c(O)c(O)c1 [Compound 1b] | 84.4 ± 0.1 |  |  | 
O=C(Oc1cccc(F)c1OC(=O)c1cc(O)c(O)c(O)c1)c1cc(O)c(O)c(O)c1 [Compound 1c] | 81.1 ± 1.1 |  |  | % inhibition of basal glucose transport [1]: 81.0 ± 1.1%
O=C(Oc1ccccc1OC(=O)c1cc(O)c(O)c(O)c1)c1cc(O)c(O)c(O)c1 [Compound 1d] | 32.1 ± 6.2 |  |  | level of glucose transport inhibition (in words) ([1]; 30 μM): lower levels of inhibition relative to 1a and 2a
COc1cccc(OC(=O)c2cc(O)cc(O)c2)c1OC(=O)c1cc(O)cc(O)c1 [Compound 1e] | 69.4 ± 3.0 |  |  | level of glucose transport inhibition (in words) ([1]; 30 μM): little to no inhibition
O=C(Oc1ccc(Cl)cc1OC(=O)c1cc(O)cc(O)c1)c1cc(O)cc(O)c1 [Compound 1f] | 95.2 ± 0.2 | 38.8 ± 6.9 |  | % inhibition of basal glucose transport ([1]; listed as WZB-114): 96.1 ± 0.1%
O=C(Oc1cccc(F)c1OC(=O)c1cc(O)cc(O)c1)c1cc(O)cc(O)c1 [Compound 1g] | 94.0 ± 0.8 | 35.0 ± 7.6 |  | % inhibition of basal glucose transport ([1]; listed as WZB-113): 96.7 ± 1.6%
COc1cccc(OC(=O)c2ccc(O)c(O)c2)c1OC(=O)c1ccc(O)c(O)c1 [Compound 1h] | 0 | 32.4 ± 2.7 |  | level of glucose transport inhibition (in words) ([1]; 30 μM): little to no inhibition
O=C(Oc1ccc(Cl)cc1OC(=O)c1ccc(O)c(O)c1)c1ccc(O)c(O)c1 [Compound 1i] | 94.4 ± 0.4 | 45.2 ± 7.6 |  | 
O=C(Oc1cccc(F)c1OC(=O)c1ccc(O)c(O)c1)c1ccc(O)c(O)c1 [Compound 1j] | 88.7 ± 1.8 | 41.5 ± 5.5 |  | 
COc1cccc(OC(=O)c2ccccc2O)c1OC(=O)c1ccccc1O [Compound 1k] | 50.5 ± 7.6 | 18.0 ± 4.4 |  | 
O=C(Oc1ccc(Cl)cc1OC(=O)c1ccccc1O)c1ccccc1O [Compound 1l] | 51.6 ± 5.9 | 26.6 ± 2.3 |  | 
O=C(Oc1cccc(F)c1OC(=O)c1ccccc1O)c1ccccc1O [Compound 1m] | 51.0 ± 6.6 |  |  | 
COc1cccc(OC(=O)c2ccc(O)cc2)c1OC(=O)c1ccc(O)cc1 [Compound 1n] | 86.5 ± 2.8 | 36.6 ± 6.7 |  | 
O=C(Oc1ccc(Cl)cc1OC(=O)c1ccc(O)cc1)c1ccc(O)cc1 [Compound 1o] | 79.0 ± 8.7 |  |  | 
O=C(Oc1cccc(F)c1OC(=O)c1ccc(O)cc1)c1ccc(O)cc1 [Compound 1p] | 92.6 ± 0.7 | 35.9 ± 4.7 |  | 
O=C(Oc1ccccc1OC(=O)c1ccc(O)cc1)c1ccc(O)cc1 [Compound 1q] | 57.5 ± 2.9 |  |  | 
O=C(Oc1cccc(OC(=O)c2cc(O)cc(O)c2)c1OC(=O)c1cc(O)cc(O)c1)c1cc(O)cc(O)c1 [Compound 2b] | 98.7 ± 0.8 | 41.0 ± 5.5 |  | % inhibition of basal glucose transport ([1]; listed as WZB-111): 99.5 ± 0.3%

SMILES | Glucose transport inhibition (%) [1, 4] [%] | Cell growth inhibition (%) ([2]; Table 2, 30 μM, 48 h) | Glucose transport inhibition (%) ([1]; Table 12) | further results
O=C(Oc1cccc(OC(=O)c2ccc(O)c(O)c2)c1OC(=O)c1ccc(O)c(O)c1)c1ccc(O)c(O)c1 [Compound 2c] | 94.7 ± 0.4 | 42.2 ± 6.1 |  | 
O=C(Oc1cccc(OC(=O)c2ccccc2O)c1OC(=O)c1ccccc1O)c1ccccc1O [Compound 2d] | 74.7 ± 2.0 |  |  | 
COc1cc(C(=O)Oc2cccc(OC)c2OC(=O)c2cc(OC)c(OC)c(OC)c2)cc(OC)c1OC [Compound 7a] | 33.3 ± 3.6 | 22.2 ± 3.4 |  | level of glucose transport inhibition (in words) ([1]; 30 μM): dramatically decreased
COc1cc(C(=O)Oc2ccc(Cl)cc2OC(=O)c2cc(OC)c(OC)c(OC)c2)cc(OC)c1OC [Compound 7b] | 1.7 ± 1.1 | 20.6 ± 2.1 |  | level of glucose transport inhibition (in words) ([1]; 30 μM): dramatically decreased
COc1cc(C(=O)Oc2cccc(F)c2OC(=O)c2cc(OC)c(OC)c(OC)c2)cc(OC)c1OC [Compound 7c] | 7.9 ± 2.6 | 19.6 ± 3.6 |  | level of glucose transport inhibition (in words) ([1]; 30 μM, listed as WZB-101): dramatically decreased levels of activity
COc1cccc(C(=O)Oc2cccc(OC)c2OC(=O)c2cccc(OC)c2)c1 [Compound 7d] | 32.1 ± 0.2 | 18.3 ± 4.3 |  | 
O=C(Nc1ccc(F)cc1NC(=O)c1cccc(O)c1)c1cccc(O)c1 [WZB-124] |  |  | 89.7 ± 2.5^b % | Cell growth inhibition (%) ([2]; Table 12): 5.7 ± 2.1%
O=C(Nc1ccc(Cl)cc1NC(=O)c1cccc(O)c1)c1cccc(O)c1 [WZB-125] |  |  | 83.7 ± 0.7% | Cell growth inhibition (%) ([2]; Table 12): 5.9 ± 1.4%
COc1cccc(OCc2cccc(O)c2)c1OCc1cccc(O)c1 [WZB-132] |  |  | 60.0 ± 7.7% | Cell growth inhibition (%) ([2]; Table 12): 6.0 ± 2.2%
Oc1cccc(COc2cccc(F)c2OCc2cccc(O)c2)c1 [WZB-134] |  |  | 92.5±2.2% and 92.6 ± 2.2% | Cell growth inhibition (%) ([2]; Table 12): 10.6±2.0%
Oc1cccc(CNc2ccc(Cl)cc2NCc2cccc(O)c2)c1 [WZB-138] |  |  | 52.2 ± 9.7% | 
Oc1cccc(CNc2ccc(F)cc2NCc2cccc(O)c2)c1 [WZB-139] |  |  | 39.2 ± 0.8% | 
Oc1cccc(COc2ccc(Cl)c(OCc3cccc(O)c3)c2)c1 [WZB-141] |  |  | 96.5±0.5% | Cell growth inhibition (%) ([2]; Table 12): 39.5±1.8%; Compound concentration (%) after incubation with serum ([3]; 0 h (arbitrarily assigned 100%)): 100%; Compound concentration (%) after incubation with serum ([3]; 4 h): 103.5%; Compound concentration (%) after incubation with serum ([3]; 24 h): 109.7%; Compound concentration (%) after incubation with serum ([3]; 48 h): 87.4%; relative stability in serum ([3]; ether vs ester bond-containing compounds): much more stable in serum than ester bond-containing compounds WZB-115 and WZB-117; Compound concentration (%) after incubation with serum ([3]; l h): 100.3%
CN(C(=O)c1cccc(O)c1)c1ccc(Cl)cc1N(C)C(=O)c1cccc(O)c1 [WZB-142] |  |  | 82.7 ± 6.8% | Cell growth inhibition (%) ([2]; Table 12): 14.2 ± 9.0%
CN(C(=O)c1cccc(O)c1)c1ccc(F)cc1N(C)C(=O)c1cccc(O)c1 [WZB-143] |  |  | 85.7 ± 3.6% | Cell growth inhibition (%) ([2]; Table 12): 31.1 ± 7.9%
CN(Cc1cccc(O)c1)c1ccc(F)cc1N(C)Cc1cccc(O)c1 [WZB-144] |  |  | 78.2±1.4% | Cell growth inhibition (%) ([2]; Table 12): 14.5±7.6%
CN(Cc1cccc(O)c1)c1ccc(Cl)cc1N(C)Cc1cccc(O)c1 [WZB-145] |  |  | 73.2 ± 3.8% | Cell growth inhibition (%) ([2]; Table 12): 38.2 ± 6.6%
